{"source": "paper PMC4814829", "about": "“Design, synthesis, crystallization and biological evaluation of new symmetrical biscationic compounds as selective inhibitors of human Choline Kinase α1 (ChoKα1)” (Scientific Reports, 2016)", "assay_type_in_all_cases": "cell-based, human", "key": {"Jurkat cells [1]": {"tested_on": "Jurkat cells", "experiment": "Trypan blue exclusion assay", "experimental": "Human T-cell leukemia (Jurkat), human B-cell leukemia (RS 4,11) and human promyelocytic leukemia (HL-60) cells were grown in RPMI-1640 medium (Gibco, Milan, Italy). Breast adenocarcinoma (MCF-7 and MDA-MB-231), human non-small cell lung carcinoma (A549), human cervix carcinoma (HeLa), human prostate adenocarcinoma (PC-3), and human colon adenocarcinoma (HT-29) cells were grown in DMEM medium (Gibco, Milan, Italy). […] Stock solutions (10 mM) of the different compounds were obtained by dissolving them in DMSO. Individual wells of 96-well tissue-culture microtiter plates were inoculated with 100 μL of complete medium containing 8 × 10^3 cells. The plates were incubated at 37 °C in a humidified 5% CO2 incubator for 18 h prior to the experiments. […] In additional experiments, cell viability was also determined by calculating the values of trypan blue positive cells (dead cells) and trypan blue negative (live cells) from a mixture of the cell suspension and 0.4% trypan blue solution. page 7: S-7 0 24 48 72 0.0 2.0x10 5 4.0x10 5 6.0x10^5 Cells/ml Time ([…] Figure S5 […] washed, counted, and incubated in a drug-free medium. After a further 72 h of incubation, cell viability was analyzed by trypan blue exclusion assay as described in the experimental section. (1 picture or pasted object on this page, not shown here)"}, "Jurkat cells [2]": {"tested_on": "Jurkat cells", "experiment": "Cell-cycle distribution analysis (PI, flow cytometry)", "experimental": "(§1) For flow-cytometric analysis of the DNA content, 5 × 10^5 HeLa or Jurkat cells in exponential growth were treated with different concentrations of the test compounds for 24 and 48 h. After the incubation period, the cells were collected, centrifuged, and fixed with ice-cold ethanol (70%). The cells were then treated with lysis buffer containing RNAse A and 0.1% Triton X-100, and then stained with propidium iodide (PI). Samples were analyzed in a Cytomics FC500 flow cytometer (Beckman Coulter). DNA histograms were analyzed using MultiCycle for Windows (Phoenix Flow Systems)."}, "MCF-7 cells": {"tested_on": "MCF-7 cells", "experiment": "Cell-cycle distribution analysis (PI, flow cytometry)", "experimental": "[The source words this procedure for another cell line and reports this cell line under the same test.] as §1"}, "MDA-MB-231 cells": {"tested_on": "MDA-MB-231 cells", "experiment": "Cell-cycle distribution analysis (PI, flow cytometry)", "experimental": "[The source words this procedure for another cell line and reports this cell line under the same test.] as §1"}}}
{"compound": "CN(C)c1cc[n+](Cc2ccc(OCCOc3ccc(C[n+]4ccc(N(C)C)cc4)cc3)cc2)cc1.[Br-].[Br-]", "note": "[Compound 10a, 1,1′-(((ethane-1,2-diylbis(oxy))bis(4,1-phenylene))bis(methylene))bis(4-(dimethylamino)pyridinium) bromide]", "values": [{"measurement": "Proliferation after washout of compound", "setting": "Jurkat cells [1]; 72 h treatment, washed, further 72 h in drug-free medium", "value": "proliferation continued to be inhibited"}, {"measurement": "Cell growth by trypan blue count", "setting": "Jurkat cells [1]; concentration-dependent", "value": "significantly inhibited cell growth"}, {"measurement": "Cells with hypodiploid DNA content (apoptotic cells by cell-cycle analysis)", "setting": "Jurkat cells [2]", "value": "not detected"}, {"measurement": "Cell-cycle effect (G1 phase)", "setting": "Jurkat cells [2]; 24 h, concentration-dependent", "value": "induced a G1 arrest of the cell cycle"}, {"measurement": "Cells with hypodiploid DNA content (apoptotic cells by cell-cycle analysis)", "setting": "MCF-7 cells; MCF-7", "value": "not detected"}, {"measurement": "Cell-cycle effect (G1 phase)", "setting": "MCF-7 cells; MCF-7, 24 h, concentration-dependent", "value": "induced a G1 arrest of the cell cycle"}, {"measurement": "Cells with hypodiploid DNA content (apoptotic cells by cell-cycle analysis)", "setting": "MDA-MB-231 cells; MDA-MB-231", "value": "not detected"}, {"measurement": "Cell-cycle effect (G1 phase)", "setting": "MDA-MB-231 cells; MDA-MB-231, 24 h, concentration-dependent", "value": "induced a G1 arrest of the cell cycle"}]}
